Values quoted from earlier work, collected in patent US20090030079A1 (priority 2007, published 2009).
Like-named read-outs stand apart in the source and are kept apart here.

What was measured:
[1] = Bi^3+, cited from earlier work
[2] = Pd^2+, cited from earlier work
[3] = cited from earlier work

NCCNCCNCCN [Trientine, N,N′-bis (2-aminoethyl)-1,2-ethanediamine]
binding stability constant (log K) [1]: 21.9 | binding stability constant (log K) ([1]; listed as trientine): very strongly | binding stability constant (log K) [2]: 39.4 | binding stability constant (log K) ([2]; listed as trientine): very strongly

CC(C)(S)[C@@H](N)C(=O)O [Penicillamine, 3-mercapto-D-valine]
solubility ([3]; in acetone): insoluble | solubility ([3]; in alcohol): slightly soluble | solubility ([3]; in benzene): insoluble | solubility ([3]; in carbon tetrachloride): insoluble | solubility ([3]; in ether): insoluble | solubility ([3]; in water): freely soluble
